How the values were obtained:
Assay type in all cases: biochemical
amylase = test: Amylase activity retention in detergent use solution (4000 ppm, 5 GPG water; ethylidene substrate EPS, HEPES buffer pH 8.0); details: base formula
Summary of the method: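 Detergent use solution at 4000 ppm in 5 GPG water held at 120° F.; aliquots taken up to 4 h, flash-frozen, then assayed with p-nitrophenyl valerate in TRIS pH 8.0 (lipase) or EPS substrate in HEPES pH 8.0 (amylase). Retention given as % activity relative to t=0.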

lipase = test: Lipase activity retention in detergent use solution (4000 ppm, 5 GPG water; p-nitrophenyl valerate, TRIS buffer pH 8.0); details: base formula
Summary of the method: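 Lipase stability was measured in a detergent use solution under conditions mimicking presoak or manual warewash, with stirring in a water bath. Aliquots were taken over time and flash-frozen. Thawed samples were diluted in TRIS buffer at pH 8.0 and assayed with p-nitrophenyl valerate as substrate on a plate reader. Activity is reported as % retained relative to the time=0 sample.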

[1] = tested on: enzyme (protease, amylase, lipase); test: Overall effects of phosphonates on enzyme activity (Table 3)
Summary of the method: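 Protease, amylase and lipase activity in detergent use solutions with varied phosphonate levels, 4000 ppm in 5 GPG water at 120° F., sampled up to 4 h and frozen at −80° C. before assay. Activity given as % retention relative to t=0 (100%).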

[2] = phosphonate 0.3 wt-%, use solution at 120° F., time 0 min
[3] = phosphonate 0.3 wt-%, use solution at 120° F., time 5 min
[4] = phosphonate 0.3 wt-%, use solution at 120° F., time 10 min
[5] = phosphonate 0.3 wt-%, use solution at 120° F., time 20 min
[6] = phosphonate 0.3 wt-%, use solution at 120° F., time 40 min
[7] = phosphonate 0.3 wt-%, use solution at 120° F., time 60 min
[8] = phosphonate 0.3 wt-%, use solution at 120° F., time 90 min
[9] = phosphonate 0.3 wt-%, use solution at 120° F., time 120 min
[10] = phosphonate 0.3 wt-%, use solution at 120° F., time 150 min
[11] = phosphonate 0.3 wt-%, use solution at 120° F., time 180 min
[12] = phosphonate 0.3 wt-%, use solution at 120° F., time 210 min
[13] = phosphonate 0.3 wt-%, use solution at 120° F., time 240 min
[14] = phosphonate 0.6 wt-%, use solution at 120º F., time 0 min
[15] = phosphonate 0.6 wt-%, use solution at 120º F., time 5 min
[16] = phosphonate 0.6 wt-%, use solution at 120º F., time 10 min
[17] = phosphonate 0.6 wt-%, use solution at 120º F., time 20 min
[18] = phosphonate 0.6 wt-%, use solution at 120º F., time 40 min
[19] = phosphonate 0.6 wt-%, use solution at 120º F., time 60 min
[20] = phosphonate 0.6 wt-%, use solution at 120º F., time 90 min
[21] = phosphonate 0.6 wt-%, use solution at 120º F., time 120 min
[22] = phosphonate 0.6 wt-%, use solution at 120º F., time 150 min
[23] = phosphonate 0.6 wt-%, use solution at 120º F., time 180 min
[24] = phosphonate 0.6 wt-%, use solution at 120º F., time 210 min
[25] = phosphonate 0.6 wt-%, use solution at 120º F., time 240 min

Monoethanolamine phosphonate [MEAP]
Relative Amylase Enzyme Activity (amylase; [2]): 100.00%
Relative Amylase Enzyme Activity (amylase; [3]): 100.65%
Relative Amylase Enzyme Activity (amylase; [4]): 102.68%
Relative Amylase Enzyme Activity (amylase; [5]): 102.07%
Relative Amylase Enzyme Activity (amylase; [6]): 91.36%
Relative Amylase Enzyme Activity (amylase; [7]): 93.57%
Relative Amylase Enzyme Activity (amylase; [8]): 94.85%
Relative Amylase Enzyme Activity (amylase; [9]): 102.84%
Relative Amylase Enzyme Activity (amylase; [10]): 93.01%
Relative Amylase Enzyme Activity (amylase; [11]): 96.46%
Relative Amylase Enzyme Activity (amylase; [12]): 100.65%
Relative Amylase Enzyme Activity (amylase; [13]): 103.40%
Relative Amylase Enzyme Activity (amylase; [14]): 100.00%
Relative Amylase Enzyme Activity (amylase; [15]): 95.91%
Relative Amylase Enzyme Activity (amylase; [16]): 99.98%
Relative Amylase Enzyme Activity (amylase; [17]): 90.83%
Relative Amylase Enzyme Activity (amylase; [18]): 91.75%
Relative Amylase Enzyme Activity (amylase; [19]): 97.99%
Relative Amylase Enzyme Activity (amylase; [20]): 99.08%
Relative Amylase Enzyme Activity (amylase; [21]): 97.36%
Relative Amylase Enzyme Activity (amylase; [22]): 101.28%
Relative Amylase Enzyme Activity (amylase; [23]): 94.70%
Relative Amylase Enzyme Activity (amylase; [24]): 99.20%
Relative Amylase Enzyme Activity (amylase; [25]): 99.15%
Relative Amylase Enzyme Activity (amylase; phosphonate at 0.1% elemental phosphorus level, use solution at 120º F., time 0 min): 100.00%
Relative Amylase Enzyme Activity (amylase; phosphonate at 0.1% elemental phosphorus level, use solution at 120º F., time 5 min): 95.47%
Relative Amylase Enzyme Activity (amylase; phosphonate at 0.1% elemental phosphorus level, use solution at 120º F., time 10 min): 112.93%
Relative Amylase Enzyme Activity (amylase; phosphonate at 0.1% elemental phosphorus level, use solution at 120º F., time 20 min): 117.67%
Relative Amylase Enzyme Activity (amylase; phosphonate at 0.1% elemental phosphorus level, use solution at 120º F., time 40 min): 122.41%
Relative Amylase Enzyme Activity (amylase; phosphonate at 0.1% elemental phosphorus level, use solution at 120º F., time 60 min): 125.44%
Relative Amylase Enzyme Activity (amylase; phosphonate at 0.1% elemental phosphorus level, use solution at 120º F., time 90 min): 127.99%
Relative Amylase Enzyme Activity (amylase; phosphonate at 0.1% elemental phosphorus level, use solution at 120º F., time 120 min): 123.91%
Relative Amylase Enzyme Activity (amylase; phosphonate at 0.1% elemental phosphorus level, use solution at 120º F., time 150 min): 120.88%
Relative Amylase Enzyme Activity (amylase; phosphonate at 0.1% elemental phosphorus level, use solution at 120º F., time 180 min): 113.29%
Relative Amylase Enzyme Activity (amylase; phosphonate at 0.1% elemental phosphorus level, use solution at 120º F., time 210 min): 112.78%
Relative Amylase Enzyme Activity (amylase; phosphonate at 0.1% elemental phosphorus level, use solution at 120º F., time 240 min): 118.72%
Relative Lipase Enzyme Activity (lipase; [2]): 100.00%
Relative Lipase Enzyme Activity (lipase; [3]): 84.99%
Relative Lipase Enzyme Activity (lipase; [4]): 78.55%
Relative Lipase Enzyme Activity (lipase; [5]): 58.36%
Relative Lipase Enzyme Activity (lipase; [6]): 39.07%
Relative Lipase Enzyme Activity (lipase; [7]): 31.84%
Relative Lipase Enzyme Activity (lipase; [8]): 26.97%
Relative Lipase Enzyme Activity (lipase; [9]): 22.23%
Relative Lipase Enzyme Activity (lipase; [10]): 20.19%
Relative Lipase Enzyme Activity (lipase; [11]): 19.50%
Relative Lipase Enzyme Activity (lipase; [12]): 16.46%
Relative Lipase Enzyme Activity (lipase; [13]): 15.76%
Relative Lipase Enzyme Activity (lipase; [14]): 100.00%
Relative Lipase Enzyme Activity (lipase; [15]): 95.37%
Relative Lipase Enzyme Activity (lipase; [16]): 90.69%
Relative Lipase Enzyme Activity (lipase; [17]): 83.63%
Relative Lipase Enzyme Activity (lipase; [18]): 72.89%
Relative Lipase Enzyme Activity (lipase; [19]): 69.90%
Relative Lipase Enzyme Activity (lipase; [20]): 65.92%
Relative Lipase Enzyme Activity (lipase; [21]): 59.18%
Relative Lipase Enzyme Activity (lipase; [22]): 53.85%
Relative Lipase Enzyme Activity (lipase; [23]): 51.72%
Relative Lipase Enzyme Activity (lipase; [24]): 47.03%
Relative Lipase Enzyme Activity (lipase; [25]): 42.96%
Relative Lipase Enzyme Activity (lipase; phosphonate at 0.1% elemental phosphorus, at 120º F. or at room temperature (as titled), time 0 min): 100.00%
Relative Lipase Enzyme Activity (lipase; phosphonate at 0.1% elemental phosphorus, at 120º F. or at room temperature (as titled), time 5 min): 81.36%
Relative Lipase Enzyme Activity (lipase; phosphonate at 0.1% elemental phosphorus, at 120º F. or at room temperature (as titled), time 10 min): 84.98%
Relative Lipase Enzyme Activity (lipase; phosphonate at 0.1% elemental phosphorus, at 120º F. or at room temperature (as titled), time 20 min): 71.62%
Relative Lipase Enzyme Activity (lipase; phosphonate at 0.1% elemental phosphorus, at 120º F. or at room temperature (as titled), time 40 min): 57.03%
Relative Lipase Enzyme Activity (lipase; phosphonate at 0.1% elemental phosphorus, at 120º F. or at room temperature (as titled), time 60 min): 47.80%
Relative Lipase Enzyme Activity (lipase; phosphonate at 0.1% elemental phosphorus, at 120º F. or at room temperature (as titled), time 90 min): 41.02%
Relative Lipase Enzyme Activity (lipase; phosphonate at 0.1% elemental phosphorus, at 120º F. or at room temperature (as titled), time 120 min): 31.46%
Relative Lipase Enzyme Activity (lipase; phosphonate at 0.1% elemental phosphorus, at 120º F. or at room temperature (as titled), time 150 min): 28.32%
Relative Lipase Enzyme Activity (lipase; phosphonate at 0.1% elemental phosphorus, at 120º F. or at room temperature (as titled), time 180 min): 20.93%
Relative Lipase Enzyme Activity (lipase; phosphonate at 0.1% elemental phosphorus, at 120º F. or at room temperature (as titled), time 210 min): 23.04%
Relative Lipase Enzyme Activity (lipase; phosphonate at 0.1% elemental phosphorus, at 120º F. or at room temperature (as titled), time 240 min): 20.87%
Stability (effects on enzyme activity) [1]: Yes

Source: US11807835B2, “Detergent compositions containing a stabilized enzyme by phosphonates” (ECOLAB USA INC., priority 2016, dated 2023)
